Reference: PubChem BioAssay (NCI)
Where “and” joins values, the source holds several entries; their conditions need not be identical. Equal values may be shown once.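 Assay format: 96-well plates, 48-hour exposure. Abbreviation: GI50, concentration required for 50% inhibition of growth. The concentration for full growth arrest is given as TGI.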

Tests used:
Assay in all cases: inhibition of tumour cell growth, NCI panel, 48 h
SW-620 colon = tested on: SW-620 colon
RXF 393 renal = tested on: RXF 393 renal
HOP-92 NSCLC = tested on: HOP-92 NSCLC
HOP-18 NSCLC = tested on: HOP-18 NSCLC
NCI/ADR-RES ovarian = tested on: NCI/ADR-RES ovarian
DMS 114 small cell lung = tested on: DMS 114 small cell lung
SF-539 CNS = tested on: SF-539 CNS
DU-145 prostate = tested on: DU-145 prostate
LOX IMVI melanoma = tested on: LOX IMVI melanoma
BT-549 breast = tested on: BT-549 breast
NCI-H23 lung = tested on: NCI-H23 lung
HCC-2998 colon = tested on: HCC-2998 colon
MCF7 breast = tested on: MCF7 breast
A498 renal = tested on: A498 renal
MOLT-4 leukemia = tested on: MOLT-4 leukemia
SNB-75 CNS = tested on: SNB-75 CNS
SK-MEL-2 melanoma = tested on: SK-MEL-2 melanoma
UACC-257 melanoma = tested on: UACC-257 melanoma
UACC-62 melanoma = tested on: UACC-62 melanoma
OVCAR-8 ovarian = tested on: OVCAR-8 ovarian
COLO 205 colon = tested on: COLO 205 colon
EKVX NSCLC = tested on: EKVX NSCLC
NCI-H460 lung = tested on: NCI-H460 lung
786-0 renal = tested on: 786-0 renal
MALME-3M melanoma = tested on: MALME-3M melanoma
U251 CNS = tested on: U251 CNS
LXFL 529 NSCLC = tested on: LXFL 529 NSCLC
T-47D breast = tested on: T-47D breast
TK-10 renal = tested on: TK-10 renal
KM20L2 colon = tested on: KM20L2 colon
IGROV1 ovarian = tested on: IGROV1 ovarian
SN12C renal = tested on: SN12C renal
PC-3 prostate = tested on: PC-3 prostate
SK-MEL-28 melanoma = tested on: SK-MEL-28 melanoma
A549 NSCLC = tested on: A549 NSCLC
SK-MEL-5 melanoma = tested on: SK-MEL-5 melanoma
SR leukemia = tested on: SR leukemia
MDA-MB-231 breast = tested on: MDA-MB-231 breast
UO-31 renal = tested on: UO-31 renal
SK-OV-3 ovarian = tested on: SK-OV-3 ovarian
MDA-N = tested on: MDA-N
RPMI-8226 leukemia = tested on: RPMI-8226 leukemia
HS 578T breast = tested on: HS 578T breast
SNB-19 CNS = tested on: SNB-19 CNS
OVCAR-4 ovarian = tested on: OVCAR-4 ovarian
HCT-15 colon = tested on: HCT-15 colon
SNB-78 CNS = tested on: SNB-78 CNS
ACHN renal = tested on: ACHN renal
NCI-H226 lung = tested on: NCI-H226 lung
M14 melanoma = tested on: M14 melanoma
HCT-116 colon = tested on: HCT-116 colon
K-562 leukemia = tested on: K-562 leukemia
CAKI-1 renal = tested on: CAKI-1 renal
HOP-62 NSCLC = tested on: HOP-62 NSCLC
DLD-1 colon = tested on: DLD-1 colon
KM12 colon = tested on: KM12 colon
DMS 273 small cell lung = tested on: DMS 273 small cell lung
HT29 colon = tested on: HT29 colon
OVCAR-5 ovarian = tested on: OVCAR-5 ovarian
SF-268 CNS = tested on: SF-268 CNS
OVCAR-3 ovarian = tested on: OVCAR-3 ovarian
CCRF-CEM leukemia = tested on: CCRF-CEM leukemia

With `COc1ccc(NCc2cc(OC)c(OC)c(OC)c2)cc1` the TGI (SW-620 colon) was > 100 µM, the TGI (RXF 393 renal) was 7.62 µM and the TGI (HOP-92 NSCLC) was > 100 µM and 19.4 µM. For the same molecule, the GI50 (HOP-18 NSCLC) was > 43.3 µM, the TGI (HOP-18 NSCLC) was > 100 µM and the TGI (NCI/ADR-RES ovarian) was > 17.1 µM. The TGI (DMS 114 small cell lung) was 0.833 µM and 0.654 µM, the TGI (SF-539 CNS) was 2.22 µM and 0.929 µM and the TGI (DU-145 prostate) was > 47.8 µM. For the same molecule, the TGI (LOX IMVI melanoma) was > 100 µM, the TGI (BT-549 breast) was > 100 µM and the TGI (NCI-H23 lung) was 31.4 µM. For the same molecule, the TGI (HCC-2998 colon) was 2.73 µM and 3.31 µM, the TGI (MCF7 breast) was > 100 µM and the TGI (A498 renal) was > 70.6 µM and 17.3 µM. For the same molecule, the TGI (MOLT-4 leukemia) was > 100 µM, the GI50 (SNB-75 CNS) was 0.513 µM and 0.262 µM and the TGI (SNB-75 CNS) was > 100 µM. For the same molecule, the GI50 (SK-MEL-2 melanoma) was 0.328 µM, the TGI (SK-MEL-2 melanoma) was > 100 µM and the GI50 (UACC-257 melanoma) was 0.338 µM and 1.16 µM. The TGI (UACC-257 melanoma) was > 100 µM, the GI50 (UACC-62 melanoma) was 0.308 µM and the TGI (UACC-62 melanoma) was > 100 µM. The TGI (OVCAR-8 ovarian) was > 100 µM, the TGI (COLO 205 colon) was 0.784 µM and 2.83 µM and the TGI (EKVX NSCLC) was > 100 µM. The TGI (NCI-H460 lung) was > 32.7 µM and 37.1 µM, the TGI (786-0 renal) was > 100 µM and the TGI (MALME-3M melanoma) was > 100 µM. The TGI (U251 CNS) was > 58.9 µM and 15.1 µM, the TGI (LXFL 529 NSCLC) was > 100 µM and the TGI (T-47D breast) was > 100 µM. For the same molecule, the TGI (TK-10 renal) was > 100 µM, the GI50 (KM20L2 colon) was 0.198 µM and the TGI (IGROV1 ovarian) was > 100 µM. For the same molecule, the TGI (SN12C renal) was > 100 µM, the TGI (PC-3 prostate) was > 100 µM and the TGI (SK-MEL-28 melanoma) was > 100 µM. The TGI (A549 NSCLC) was > 100 µM, the GI50 (SK-MEL-5 melanoma) was 0.252 µM and the TGI (SK-MEL-5 melanoma) was 32.7 µM and > 74.5 µM. For the same molecule, the TGI (SR leukemia) was > 29 µM, the TGI (MDA-MB-231 breast) was > 100 µM and the GI50 (UO-31 renal) was 2.79 µM. The TGI (UO-31 renal) was > 100 µM, the TGI (SK-OV-3 ovarian) was > 100 µM and 22.5 µM and the TGI (MDA-N) was 2.55 µM. The TGI (RPMI-8226 leukemia) was > 100 µM, the TGI (HS 578T breast) was > 100 µM and the TGI (SNB-19 CNS) was > 100 µM. The TGI (OVCAR-4 ovarian) was > 100 µM, the TGI (HCT-15 colon) was > 39.7 µM and 36.5 µM and the TGI (SNB-78 CNS) was > 100 µM. For the same molecule, the GI50 (ACHN renal) was 0.713 µM and 1.84 µM, the TGI (ACHN renal) was > 100 µM and the GI50 (NCI-H226 lung) was 0.414 µM and 4.04 µM. The TGI (NCI-H226 lung) was 6.38 µM and 29.1 µM, the TGI (M14 melanoma) was > 100 µM and 15.4 µM and the TGI (HCT-116 colon) was > 72 µM and 34.1 µM. The GI50 (K-562 leukemia) was 0.0444 µM and 0.114 µM, the TGI (K-562 leukemia) was > 100 µM and the GI50 (CAKI-1 renal) was 0.404 µM and 1.04 µM. The TGI (CAKI-1 renal) was > 100 µM, the TGI (HOP-62 NSCLC) was > 74.1 µM and the TGI (DLD-1 colon) was > 100 µM. The TGI (KM12 colon) was > 32.7 µM and 31.3 µM, the TGI (DMS 273 small cell lung) was > 100 µM and the TGI (HT29 colon) was > 100 µM and 12.9 µM. For the same molecule, the GI50 (OVCAR-5 ovarian) was > 91.7 µM and 20.2 µM, the TGI (OVCAR-5 ovarian) was > 100 µM and the TGI (SF-268 CNS) was > 100 µM. The TGI (OVCAR-3 ovarian) was 1.17 µM and 2.89 µM, the GI50 (CCRF-CEM leukemia) was 0.281 µM and 0.855 µM and the TGI (CCRF-CEM leukemia) was > 100 µM.
